With `COc1cccc(Oc2ccc(N)cc2)c1`, the melting point lay in the range of 62 to 64 °C.
Turning to `O=Cc1c(O)ccc([N+](=O)[O-])c1Cl`, the melting point is 118 to 120 °C.
Regarding `CSc1nc(-c2ccccc2)c[nH]1`, the melting point is 130 to 132 °C.
Consider `Cc1ccc(Nc2nnc(S)s2)c(C)c1`, for which the melting point was 172 to 174 °C.
The compound `Cc1nn(CCO)c2nc(C3CC3)cc(C(=O)O)c12` yielded a melting point of 184 to 186 °C.
In the case of `CN(C)c1ncc(Br)cc1C(=O)O`, the melting point lay in the range of 143 to 145 °C.
As for `Nc1cccc(CN2CCC(CO)CC2)c1`, the figure is 89 to 91 °C; as for `CCN(CC)C1=NC(=O)C(CC(=O)Nc2cccc(C(=O)O)c2)S1` (configuration not stated), 236 to 238 °C; as for `CC1(c2ccsc2)CC(=O)NC1=O` (configuration not stated), 96 to 98 °C.
The compound `Cc1ccc2nc(-c3ccc(N=C=S)cc3)sc2c1` registered a melting point of 243 to 245 °C.
In turn, `CC1CCC(NC(=O)CCl)CC1` (configuration not stated) showed a melting point of 152 to 155 °C.
In turn, `N#Cc1cccc(COc2ccc(N)cc2Cl)c1` displayed a melting point of 112 to 114 °C.
Under `CCOc1ccc(N)cc1S(N)(=O)=O` stands 154 to 156 °C; under `CS(=O)(=O)c1cc(Br)cc(C(=O)O)c1F`, 209 to 211 °C; under `O=C(CCl)Nc1cc([N+](=O)[O-])ccc1F`, 125 to 127 °C.
As for `N#CCC(=O)N1CCN(c2ccccc2)CC1`, the figure is 132 to 134 °C.
Under `O=[N+]([O-])c1cccc(-c2nn[nH]n2)c1` stands 154 to 156 °C; under `Cc1cc(C=O)c(C)n1C1CC1`, 71 to 75 °C.
The compound `COc1ccccc1C(NC(=O)OC(C)(C)C)C(N)=NO` (configuration not stated) registered a melting point of 185 to 187 °C.
`N#Cc1ccc(CC(N)=O)cc1` came in with a melting point of 191 to 193 °C.
Under `O=C(O)c1ccnc(Cl)c1[N+](=O)[O-]` stands 222 to 224 °C.
As for `CSc1nc(Cl)cc(NN)n1`, the figure is 154 to 156 °C; as for `Nc1cc(-c2ccc([N+](=O)[O-])cc2)no1`, 195 to 197 °C; as for `CCCCNc1ccc(N2CCOCC2)cc1`, 59 to 61 °C.
Under `Cc1c(C(=O)O)oc2c(F)cc(F)cc12` stands 339 to 341 °C.
Compound `O=C(Nc1cccc(O)c1)c1ccco1` came in with a melting point of 164 to 166 °C.
As for `O=C(O)C=Cc1cc(Br)cs1`, the figure is 169 to 171 °C; as for `O=C(O)CCn1ncc(=O)c2ccccc21`, 130 to 132 °C; as for `Nc1cc(Cl)c(I)cn1`, 99 to 101 °C.
Under `Cc1cc2n(n1)C(C(F)(F)F)CCN2` (configuration not stated) stands 169 to 171 °C.
Turning to `COC(=O)c1cc(N)ccc1C`, the melting point fell in the range of 38 to 40 °C.
As for `O=C(O)c1cc(Cl)cc2cccnc12`, the figure is 224 to 226 °C; as for `Cc1cnc2ccccc2c1Cl`, 57 to 59 °C; as for `Cc1nn(-c2ccccc2)c(N)c1SC#N`, 108 to 110 °C.
As for `O=C(O)CNC(=O)CC(F)(F)F`, the figure is 122 to 124 °C; as for `CCn1ncc(C(=O)O)c1C(F)(F)F`, 136 to 138 °C.
As for `Nc1ccccc1-c1ccc(-c2ccccc2)cc1`, the figure is 163 to 165 °C; as for `Cc1nc2sc3c(c2c(=O)n1N)CCCCC3`, 199 to 201 °C; as for `COCCc1nnc(S)n1N`, 118 to 120 °C.
Take `Cc1cc(F)ccc1NC(=O)C=NO`: the melting point lay in the range of 132 to 134 °C.
Under `O=C(O)Cc1csc(-c2cccs2)n1` stands 97 to 99 °C; under `CCCCn1ncc(C(=O)O)c1C`, 77 to 79 °C; under `O=C(O)CS(=O)Cc1ccc(Br)cc1` (configuration not stated), 141 to 143 °C.
Compound `Cc1nc(-c2ccc(Cl)cc2)sc1C(C)N` (configuration not stated) gave a melting point of 42 to 44 °C.
`O=C1COc2ccc(C(=O)/C=C/c3ccccc3)cc2N1` yielded a melting point of 228 to 230 °C.
Consider `CNc1snc(C)c1C(=O)OC`, for which the melting point was in the range of 56 to 58 °C.
Compound `Cc1c(C(=O)O)cc(F)cc1S(=O)(=O)Cl` returned a melting point of 121 to 123 °C.
Under `CC1(C)NC(=O)N(CC#N)C1=O` stands 155 to 157 °C.
As for `COc1cc(CC#N)ccc1SC(F)(F)F`, the figure is 59 to 61 °C; as for `COc1ccc(/C=C/C(=O)O)cc1S(N)(=O)=O`, 257 to 259 °C.
As for `Nc1nonc1-c1ccccn1`, the figure is 124 to 126 °C; as for `Cc1ccc(S(=O)(=O)Cl)cc1Br`, 69 to 71 °C; as for `NC(=S)Cc1cn2cc(Cl)cc(Cl)c2n1`, 189 to 191 °C.
`Cc1ccc(CCC(=O)NCC(=O)O)cc1` showed a melting point of 118 to 120 °C.
Under `CCn1cc(S(N)(=O)=O)cn1` stands 86 to 88 °C; under `CC(C)(C)OC(=O)N1CCN(CC(O)c2ccco2)CC1` (configuration not stated), 57 to 59 °C.
Under `CC(CC(=O)O)NS(=O)(=O)c1cccnc1Cl` (configuration not stated) stands 144 to 146 °C; under `CCCCCC(=O)Nc1ccc(C(=O)CCl)cc1`, 179 to 181 °C.
As for `NCc1nnc2n1CCCCC2`, the melting point was in the range of 70 to 72 °C.
As for `CC(Cl)C(=O)N1CCNC1=O` (configuration not stated), the figure is 116 to 120 °C.
`COC(=O)C1CCN(S(=O)(=O)Cl)CC1` yielded a melting point of 66 to 68 °C.
Under `Cn1c(=O)c(Br)c(N)n(Cc2ccccc2)c1=O` stands 210 to 212 °C; under `CN1CC(=O)Nc2cnccc21`, 274 to 276 °C; under `CC(C)(C)OC(=O)N1CCCC(C(=O)NC2CCCNC2)C1` (configuration not stated), 116 to 118 °C.
Under `Cc1nc(-c2ccc(S(N)(=O)=O)cc2)co1` stands 245 to 247 °C.
As for `CNC(=O)c1ccc(C)c(N)c1`, the figure is 167 to 169 °C; as for `Cn1cc(NS(=O)(=O)c2ccsc2C(=O)O)cn1`, 239 to 241 °C; as for `CN(C)/C=C(/C#N)C(N)=O`, 166 to 168 °C.
For `CCC(C)NC(=O)c1ccc(N)cc1` (configuration not stated), the melting point fell in the range of 101 to 104 °C.
Regarding `CC(=O)NCCCc1ccc(C(=O)CCl)cc1`, the melting point was in the range of 96 to 98 °C.
`Nc1nc2c(OC(F)F)cccc2s1` showed a melting point of 144 to 146 °C.
As for `O=S1(=O)NC=Nc2ccccc21`, the figure is 222 to 224 °C; as for `COc1cc(N)ccc1N1CCCC1=O`, 126 to 128 °C.
In turn, `O=C(O)c1ccc(SCc2ccccc2)cc1` yielded a melting point of 184 to 186 °C.
In turn, `O=C1CC(=Cc2ccc(F)cc2)C(=O)N1` registered a melting point of 209 to 211 °C.
Take `Cc1n[nH]c(C)c1C1COCCN1` (configuration not stated): the melting point lay in the range of 127 to 129 °C.
`COc1ccc(NS(=O)(=O)c2cccs2)cc1` showed a melting point of 120 to 122 °C.
Compound `CCCCOc1ccc(-c2nnc(CCl)o2)cc1` yielded a melting point of 77 to 79 °C.
Under `Cc1nc(CCC(=O)O)oc1-c1ccc(Br)cc1` stands 179 to 181 °C; under `Cc1ncc(-c2ccc(N)cc2)o1`, 126 to 128 °C.
Under `CC(C)(C)c1cc(CCC(=O)O)cc(C(C)(C)C)c1O` stands 165 to 167 °C; under `O=C(Nc1ccsc1C(=O)O)c1ccc(Br)cc1`, 240 to 242 °C; under `Cc1cc(C(=O)O)ccc1NS(=O)(=O)C(F)(F)F`, 203 to 205 °C.
Under `O=C(O)C1C2C3CCC(C3)C12` (configuration not stated) stands 96 to 98 °C; under `O=S(=O)(Cl)c1cc(Br)ccc1Cl`, 64 to 66 °C; under `CC1Oc2c(ccc(Cl)c2Cl)C1=O` (configuration not stated), 99 to 101 °C.
As for `NC(=O)c1ccc(N)cc1Cl`, the melting point lay in the range of 163 to 165 °C.

What is called melting point is the temperature of the solid-liquid transition.
